Values quoted from earlier work as cited in article PMC12808597, “Spatially diffuse cAMP signalling with oppositely biased GLP-1 receptor agonists in β-cells despite differences in receptor localisation” (Molecular Metabolism, 2025).
No end group written: not given here.

Legend:
BRIN-BD11 clonal β-cells = details: ref [5]
Source text: (§1) In this work we relied on agonist-specific patterns of internalisation to provide selective endosomal or plasma membrane localisation of active GLP-1R. Alternative approaches include pharmacological or genetic inhibition of receptor internalisation, for example the small molecule dynamin inhibitor dyngo4A [55] or overexpression of dominant negative dynamin K44 mutants, both of which have been used to probe the importance of GLP-1R internalisation on its signalling responses.

HEK293 cells = details: ref [16]
Source text: as §1

rodent systems = details: no reference given
GLP-1R [1] = details: ref [6],[26]
Source text: In this context, interest has emerged in GLP-1R agonist ligands (GLP-1RAs) showing distinct trafficking profiles, which could lead to altered signalling from intracellular locations [[14], [15], [16]], as has been extensively noted for other GPCRs [[17], [18], [19]].

GLP-1R [2] = details: ref [12]
Source text: GPCR signalling localisation is now a major area of research interest. Inherent to this phenomenon is the assumption that signalling responses are subject to tight spatial control, for example in the form of sharp cAMP concentration gradients close to the site of generation. Indeed, this has been reported when comparing GLP-1-induced cAMP responses at different plasma membrane nanodomains in HEK293 cells with overexpressed GLP-1R [12]. This contrasts somewhat with the current work in which cAMP was rapidly detected at intracellular locations distant from the activated GLP-1R in β-cell ...

Molecule: O=C(N/N=C/c1ccc(O)c(O)c1)c1cc2ccccc2cc1O [dynasore]
- Effect on exendin-4-induced cAMP production (BRIN-BD11 clonal β-cells): reduced exendin-4-induced cAMP production

Molecule: O=C(N/N=C/c1cc(O)c(O)cc1O)c1cc2ccccc2cc1O [dyngo4a]
- Effect on GLP-1RA signalling responses (HEK293 cells): broad inhibition of GLP-1RA signalling responses

Molecule: Cc1cc(-n2nc3c(c2-n2ccn(-c4ccc5c(cnn5C)c4F)c2=O)[C@H](C)N(C(=O)c2cc4cc([C@H]5CCOC(C)(C)C5)ccc4n2[C@@]2(c4noc(=O)[nH]4)C[C@@H]2C)CC3)cc(C)c1F [orforglipron]
- Activity in rodent systems (rodent systems): inactive

Molecule: AMG133: GLP-1RA/GIPR antagonistic antibody
- GLP-1R-mediated delivery to early endosomes (GLP-1R [1]): enhanced GLP-1R-mediated delivery to early endosomes

Molecule: GLP-1: GLP-1, as used in Anton et al. [12] (HAEGTFTSDVSSYLEGQAAKEFIAWLVKGR; ends and bridges not checked; UniProt P01275 98-127, looked up)
- cAMP at GLP-1R nanodomain (GLP-1R [2]; GLP-1 1 pM): cAMP increases within 60 nm of the GLP-1R in HEK293 cells without changes to whole cell or overall plasma membrane cAMP
- cAMP gradient at GLP-1R nanodomain (GLP-1R [2]; GLP-1 1 nM and 100 nM): no such gradient was seen
